Experimental data reported in US20070117770A1, “Human ribosomal DNA (rDNA) and ribosomal RNA (rRNA) nucleic acids and uses thereof” (Cylene Pharmaceuticals, Inc., priority 2005, published 2007).

Assays:
Experiment in all cases: Protein kinase inhibition assay
Type in all cases: biochemical
TSSK2(h) = TSSK2(h) (Homo sapiens, UniProt Q96PF2); details: read-out: percent residual activity of TSSK2(h)
Description: (§1) Certain compounds were tested for activity in protein kinase inhibition assays. All substrates were dissolved and diluted to working stocks in de-ionized water, apart from histone H1 (10× working stock in 20 mM MOPS pH 7.0), PDKtide (10× working stock in 50 mM Tris pH 7.0) ATF2 (which is typically stored at a 20× working stock in 50 mM Tris pH 7.5, 150 mM NaCl, 0.1 mM EGTA, 0.03% Brij-35, 50% glycerol, 1 mM benzamidine, 0.2 mM PMSF and 0.1% R-mercaptoethanol), KKLNRTLSFAEPG (SEQ ID NO:203) and RRRLSFAEPG (SEQ ID NO:204) (50 mM HEPES pH 7.4) and GGEEEEYFELVKKKK (SEQ ID NO:205) (20 mM MOPS pH 7.0). All kinases were pre-diluted to a 10× working concentration prior to addition into the assay. The composition of the dilution buffer for each kinase is detailed below.
(§2) In a final reaction volume of 25 μl, TSSK2 (h) (5-10 mU) is incubated with 8 mM MOPS pH 7.0, 0.2 mM EDTA, 100 μM […] (SEQ ID NO:213), 10 mM MgAcetate and [y-33P-ATP] (specific activity approx. 500 cpm/pmol, concentration as required). The reaction is initiated by the addition of the MgATP mix. After incubation for 40 minutes at room temperature, the reaction is stopped by the addition of 5 μl of a 3% phosphoric acid solution. 10 μl of the reaction is then spotted onto a P30 filtermat and washed three times for 5 minutes in 75 mM phosphoric acid and once in methanol prior to drying and scintillation counting.

CHK2(h) = CHK2(h) (Homo sapiens, UniProt O96017); details: read-out: percent residual activity of CHK2(h)
Description: as §1
as §2, with “CHK2” for “TSSK2”, “200” for “100”, “[gamma-33P-ATP]” for “[y-33P-ATP]”

RIPK2(h) = RIPK2(h) (Homo sapiens, UniProt O43353); details: read-out: percent residual activity of RIPK2(h)
Description: as §1
(§3) In a final reaction volume of 25 μl, RIPK2 (h) (5-10 mU) is incubated with 8 mM MOPS pH 7.0, 0.2 mM EDTA, 0.33 mg/ml myelin basic protein, 10 mM MgAcetate and [gamma-33P-ATP] (specific activity approx. 500 cpm/pmol, concentration as required). The reaction is initiated by the addition of the MgATP mix. After incubation for 40 minutes at room temperature, the reaction is stopped by the addition of 5 μl of a 3% phosphoric acid solution. 10 μl of the reaction is then spotted onto a P30 filtermat and washed three times for 5 minutes in 75 mM phosphoric acid and once in methanol prior to drying and scintillation counting.

Ret(h) = Ret(h) (Homo sapiens, UniProt P07949); details: read-out: percent residual activity of Ret(h)
Description: as §1
In a final reaction volume of 25 μl, Ret (h) (5-10 mU) is incubated with 8 mM MOPS pH 7.0, 0.2 mM EDTA, 250 μM KKKSPGEYVNIEFG (SEQ ID NO:207), 10 mM MgAcetate and [gamma-33P-ATP] (specific activity approx. 500 cpm/pmol, concentration as required). The reaction is initiated by the addition of the MgATP mix. After incubation for 40 minutes at room temperature, the reaction is stopped by the addition of 5 μl of a 3% phosphoric acid solution. 10 μl of the reaction is then spotted onto a P30 filtermat and washed three times for 5 minutes in 75 mM phosphoric acid and once in methanol prior to drying and scintillation counting.

PAK6(h) = PAK6(h) (Homo sapiens, UniProt Q9NQU5); details: read-out: percent residual activity of PAK6(h)
Description: as §1
In a final reaction volume of 25 μl, PAK6 (h) (5-10 mU) is incubated with 8 mM MOPS pH 7.0, 0.2 mM EDTA, 200 μM RRRLSFAEPG (SEQ ID NO:223), 10 mM MgAcetate and [y-33P-ATP] (specific activity approx. 500 cpm/pmol, concentration as required). The reaction is initiated by the addition of the MgATP mix. After incubation for 40 minutes at room temperature, the reaction is stopped by the addition of 5 μl of a 3% phosphoric acid solution. 10 μl of the reaction is then spotted onto a P30 filtermat and washed three times for 5 minutes in 75 mM phosphoric acid and once in methanol prior to drying and scintillation counting.

cKit(h) = cKit(h) (Homo sapiens, UniProt P10721); details: read-out: percent residual activity of cKit(h)
Description: as §1
as §3, with “cKit” for “RIPK2”, “10 mM MnCl2, 0.1” for “0.33”, “poly(Glu, Tyr) 4:1,” for “myelin basic protein,”, “Filtermat A” for “P30 filtermat”

RIPK2(h), sequence (O43353 whole entry): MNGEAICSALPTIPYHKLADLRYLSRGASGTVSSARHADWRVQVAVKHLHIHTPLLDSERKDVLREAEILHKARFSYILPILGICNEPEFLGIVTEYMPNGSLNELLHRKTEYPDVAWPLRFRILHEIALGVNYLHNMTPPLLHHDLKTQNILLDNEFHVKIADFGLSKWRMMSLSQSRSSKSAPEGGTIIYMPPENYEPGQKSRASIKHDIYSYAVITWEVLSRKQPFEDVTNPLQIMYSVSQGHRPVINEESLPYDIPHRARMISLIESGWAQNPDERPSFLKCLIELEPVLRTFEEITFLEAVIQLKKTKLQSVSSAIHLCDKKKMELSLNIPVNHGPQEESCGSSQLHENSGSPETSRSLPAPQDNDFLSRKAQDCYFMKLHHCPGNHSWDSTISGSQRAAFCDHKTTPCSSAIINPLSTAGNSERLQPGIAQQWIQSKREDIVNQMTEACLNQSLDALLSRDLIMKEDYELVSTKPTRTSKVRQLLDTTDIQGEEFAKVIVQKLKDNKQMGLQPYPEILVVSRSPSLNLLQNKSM
PAK6(h), sequence (Q9NQU5 whole entry): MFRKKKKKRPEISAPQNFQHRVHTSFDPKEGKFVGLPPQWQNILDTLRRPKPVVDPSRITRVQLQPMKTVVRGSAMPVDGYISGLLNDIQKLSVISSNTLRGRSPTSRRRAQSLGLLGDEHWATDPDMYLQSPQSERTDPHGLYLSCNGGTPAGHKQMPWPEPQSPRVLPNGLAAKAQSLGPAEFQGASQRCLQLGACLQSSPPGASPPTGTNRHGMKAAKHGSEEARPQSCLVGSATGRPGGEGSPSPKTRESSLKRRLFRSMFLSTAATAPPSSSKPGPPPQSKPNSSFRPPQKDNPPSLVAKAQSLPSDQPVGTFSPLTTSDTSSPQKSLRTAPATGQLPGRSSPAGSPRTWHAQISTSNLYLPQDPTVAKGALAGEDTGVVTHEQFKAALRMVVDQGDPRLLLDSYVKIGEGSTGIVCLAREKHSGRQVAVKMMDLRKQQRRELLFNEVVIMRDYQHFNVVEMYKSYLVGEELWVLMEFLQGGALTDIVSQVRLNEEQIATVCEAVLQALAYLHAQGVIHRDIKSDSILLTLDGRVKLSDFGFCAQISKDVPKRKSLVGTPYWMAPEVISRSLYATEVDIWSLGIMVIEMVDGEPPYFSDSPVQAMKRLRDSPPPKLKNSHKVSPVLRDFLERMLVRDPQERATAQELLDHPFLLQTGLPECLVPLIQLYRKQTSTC
Ret(h), sequence (P07949 29-1114): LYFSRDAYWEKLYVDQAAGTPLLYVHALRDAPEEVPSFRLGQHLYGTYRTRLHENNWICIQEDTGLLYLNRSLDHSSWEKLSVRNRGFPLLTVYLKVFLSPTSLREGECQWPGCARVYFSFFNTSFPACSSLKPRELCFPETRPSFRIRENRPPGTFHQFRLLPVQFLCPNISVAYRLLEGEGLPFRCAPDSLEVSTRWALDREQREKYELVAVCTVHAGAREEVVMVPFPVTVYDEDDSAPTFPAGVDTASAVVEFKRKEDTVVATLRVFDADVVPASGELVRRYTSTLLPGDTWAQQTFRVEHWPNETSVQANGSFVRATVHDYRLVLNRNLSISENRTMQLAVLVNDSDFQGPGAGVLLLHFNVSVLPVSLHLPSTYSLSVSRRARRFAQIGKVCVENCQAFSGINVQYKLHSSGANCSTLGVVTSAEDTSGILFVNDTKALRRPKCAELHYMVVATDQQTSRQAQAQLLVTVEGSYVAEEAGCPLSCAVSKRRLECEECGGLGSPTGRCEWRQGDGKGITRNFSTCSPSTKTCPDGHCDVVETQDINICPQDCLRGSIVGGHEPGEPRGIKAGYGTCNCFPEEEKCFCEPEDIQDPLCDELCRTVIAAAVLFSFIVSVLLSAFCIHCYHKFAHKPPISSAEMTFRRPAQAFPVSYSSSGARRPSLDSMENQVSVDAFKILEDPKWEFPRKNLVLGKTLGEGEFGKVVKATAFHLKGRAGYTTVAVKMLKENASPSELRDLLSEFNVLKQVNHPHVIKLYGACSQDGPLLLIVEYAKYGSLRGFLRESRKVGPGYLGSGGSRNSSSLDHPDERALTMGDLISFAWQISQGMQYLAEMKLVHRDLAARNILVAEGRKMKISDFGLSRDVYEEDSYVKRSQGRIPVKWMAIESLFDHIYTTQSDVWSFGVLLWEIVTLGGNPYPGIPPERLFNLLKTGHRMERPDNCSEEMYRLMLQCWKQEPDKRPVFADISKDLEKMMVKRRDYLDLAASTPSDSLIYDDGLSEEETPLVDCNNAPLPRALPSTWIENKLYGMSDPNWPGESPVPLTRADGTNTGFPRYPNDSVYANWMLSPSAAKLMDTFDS
CHK2(h), sequence (O96017 whole entry): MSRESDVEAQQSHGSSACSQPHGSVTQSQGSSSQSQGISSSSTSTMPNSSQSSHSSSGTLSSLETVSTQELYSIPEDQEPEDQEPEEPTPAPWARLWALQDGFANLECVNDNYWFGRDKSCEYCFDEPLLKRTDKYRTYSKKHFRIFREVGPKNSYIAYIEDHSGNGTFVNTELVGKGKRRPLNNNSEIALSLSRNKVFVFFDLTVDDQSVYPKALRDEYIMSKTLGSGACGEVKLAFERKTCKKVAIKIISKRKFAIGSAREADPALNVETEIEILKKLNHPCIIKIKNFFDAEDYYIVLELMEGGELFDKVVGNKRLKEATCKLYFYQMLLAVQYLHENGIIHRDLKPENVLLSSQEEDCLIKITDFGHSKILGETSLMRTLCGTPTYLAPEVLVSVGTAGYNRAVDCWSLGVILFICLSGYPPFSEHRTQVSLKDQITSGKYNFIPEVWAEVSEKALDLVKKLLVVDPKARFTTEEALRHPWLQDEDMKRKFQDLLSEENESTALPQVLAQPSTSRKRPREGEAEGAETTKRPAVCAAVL
TSSK2(h), sequence (Q96PF2 whole entry): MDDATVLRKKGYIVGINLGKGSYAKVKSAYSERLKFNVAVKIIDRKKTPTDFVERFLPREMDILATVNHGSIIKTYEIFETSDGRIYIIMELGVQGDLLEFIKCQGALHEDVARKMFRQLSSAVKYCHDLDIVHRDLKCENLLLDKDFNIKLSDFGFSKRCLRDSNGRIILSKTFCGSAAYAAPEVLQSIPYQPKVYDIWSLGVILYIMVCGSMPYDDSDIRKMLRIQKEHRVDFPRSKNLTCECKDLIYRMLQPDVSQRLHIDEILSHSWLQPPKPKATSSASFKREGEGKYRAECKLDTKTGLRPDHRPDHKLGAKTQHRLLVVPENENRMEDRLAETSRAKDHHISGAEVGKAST
cKit(h), sequence (P10721 26-976): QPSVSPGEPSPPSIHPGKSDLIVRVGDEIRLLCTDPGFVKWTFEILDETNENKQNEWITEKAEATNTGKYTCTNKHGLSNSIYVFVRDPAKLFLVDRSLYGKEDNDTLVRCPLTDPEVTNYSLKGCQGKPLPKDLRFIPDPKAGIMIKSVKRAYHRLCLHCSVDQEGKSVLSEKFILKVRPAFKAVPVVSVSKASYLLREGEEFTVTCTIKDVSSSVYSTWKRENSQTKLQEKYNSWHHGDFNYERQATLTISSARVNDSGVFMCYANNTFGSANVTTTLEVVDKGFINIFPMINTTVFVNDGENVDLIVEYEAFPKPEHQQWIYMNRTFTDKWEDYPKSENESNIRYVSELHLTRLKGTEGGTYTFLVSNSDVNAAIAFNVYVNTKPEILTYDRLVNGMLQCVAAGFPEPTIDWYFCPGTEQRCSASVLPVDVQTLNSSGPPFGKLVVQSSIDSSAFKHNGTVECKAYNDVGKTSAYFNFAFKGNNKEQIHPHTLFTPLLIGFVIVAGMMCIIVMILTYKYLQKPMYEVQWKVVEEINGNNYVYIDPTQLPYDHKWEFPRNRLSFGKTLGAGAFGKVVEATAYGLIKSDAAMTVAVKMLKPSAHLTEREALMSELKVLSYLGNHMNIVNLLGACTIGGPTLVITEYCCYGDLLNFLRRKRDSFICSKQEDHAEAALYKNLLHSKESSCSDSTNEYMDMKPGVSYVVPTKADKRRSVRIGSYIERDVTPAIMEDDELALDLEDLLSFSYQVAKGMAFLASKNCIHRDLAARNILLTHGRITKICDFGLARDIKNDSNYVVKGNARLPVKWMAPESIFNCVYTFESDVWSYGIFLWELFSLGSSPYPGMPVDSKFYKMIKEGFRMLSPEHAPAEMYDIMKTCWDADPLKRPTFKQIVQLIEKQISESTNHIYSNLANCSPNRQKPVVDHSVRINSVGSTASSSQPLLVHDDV

remaining activity at 2.5 µM (TSSK2(h)) [%]	remaining activity at 2.5 µM (CHK2(h)) [%]	remaining activity at 2.5 µM (RIPK2(h)) [%]	remaining activity at 2.5 µM (Ret(h)) [%]	remaining activity at 2.5 µM (PAK6(h)) [%]	remaining activity at 2.5 µM (cKit(h)) [%]	Structure (SMILES)
110	99	99	92	112	114	CC(=O)N1CCN(c2ccc3c(=O)c(C(=O)NCCN4CCCC4)c4n(C)c5ccccc5n4c3n2)CC1 [Compound B-1]
105	62	95	123	123	111	CN1CCCC1CCNC(=O)c1cn2c3c(c(N4CCC(c5cnccn5)C4)c(F)cc3c1=O)Oc1cc3ccccc3cc1-2 (stereo not drawn) [Compound A-1]
